Read-outs that look alike come from different tables or passages of the source.
Columns and labels:
[1] = target: rGmolCSP8 (Grapholita molesta, UniProt A0A0M4FML8); test: Fluorescence competitive binding assay (1-NPN displacement), wild-type; conditions: for IC50: 20 mM Tris-HCl pH 7.4, read-out: IC50; for binding to rGmolCSP8 (in words): wild-type rGmolCSP8, pH 7.4
Procedure: The fluorescence spectra were recorded using a fluorescence spectrophotometer (F-4500, Hitachi, Tokyo, Japan) in a 1 cm light path fluorimeter quartz cuvette with 10 nm slits for excitation and 20 nm slits for emission. […] The fluorescent probe N-phenyl-1-naphthylamine (1-NPN) and all putative ligands used in binding assays were dissolved in methanol (HPLC purity grade) to obtain a 1 mM stock solution. The rGmolCSP8 protein was diluted to in 20 mM Tris–HCl to obtain a 2 μM solution, pH 7.4. […] The fluorescent probe was excited at 337 nm and emission spectra were recorded from 370 to 550 nm. […] Binding data were obtained from three replicates assays for each concentration of each tested ligand.

[2] = target: GmolCSP8-V40A (Grapholita molesta, UniProt A0A0M4FML8, V55A); test: biochemical; assay type: binding
Sequence of GmolCSP8-V40A (A0A0M4FML8 entry or part of it V55A): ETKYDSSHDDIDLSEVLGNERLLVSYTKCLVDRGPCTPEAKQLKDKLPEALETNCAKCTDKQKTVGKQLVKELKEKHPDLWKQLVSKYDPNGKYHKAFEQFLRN
Procedure: (§1) To determine whether GmolCSP8 is involved in odorant binding, fluorescence competitive binding assays were performed ([Zhong et al., 2012]). The fluorescence spectra were recorded using a fluorescence spectrophotometer (F-4500, Hitachi, Tokyo, Japan) in a 1 cm light path fluorimeter quartz cuvette with 10 nm slits for excitation and 20 nm slits for emission. The selected chemicals are listed in Table 2, and included four sex pheromone components and 34 volatiles from different host plants (peach and pear trees) of G. molesta based on previous investigations ([Natale et al., 2004]; [Lu et al., 2012]; [Najar-Rodriguez et al., 2013b]). The fluorescent probe N-phenyl-1-naphthylamine (1-NPN) and all putative ligands used in binding assays were dissolved in methanol (HPLC purity grade) to obtain a 1 mM stock solution. The rGmolCSP8 protein was diluted to in 20 mM Tris–HCl to obtain a 2 μM solution, pH 7.4. To measure the binding affinity of 1-NPN for GmolCSP8, a 2 μM solution of protein was titrated with aliquots of 1 mM 1-NPN prepared to final concentrations ranging from 1 to 22 μM. The fluorescent probe was excited at 337 nm and emission spectra were recorded from 370 to 550 nm. […] Binding data were obtained from three replicates assays for each concentration of each tested ligand. Dissociation constants (Kd) of protein to 1-NPN were calculated by non-linear regression, using GraphPad Prism 4.00 software (GraphPad Software Inc.). The inhibition constants (Ki) of the competitors were determined using the corresponding IC50 values (concentration of competitor that reduced the initial fluorescence intensity by half) based on the following equation: Ki = [IC50]/(1+[1-NPN]/K1-NPN), where [1-NPN] is the free concentration of 1-NPN and K1-NPN is the dissociation constant of the complex GmolCSP8/1-NPN.
(§2) To verify the four predicted key amino acid sites of GmolCSP8 binding for 1-hexanol, recombinant plasmids for four CSP8 mutants were obtained via site-directed mutagenesis experiments. Specific primers introducing mutation sites of the four key amino acid CSP8 plasmids (GmolCSP8-T27A, GmolCSP8-L30A, GmolCSP8-V40A, and GmolCSP8-L80A) were designed and are listed in Table 1. The four mutants were mutated by using the TaKaRa MutanBEST Kit (TaKaRa, Shiga, Japan) with the pMD®19-T/GmolCSP8 plasmid DNA as template. All plasmids containing mutations were validated by sequencing with five randomly selected single colonies. pMD®19-T plasmids including four CSP8 mutants were digested with Bam HI and Hind III restriction enzymes. Then, the target sequences were ligated into the expression vector pET28a (+) and transformed into BL21 (DE3) competent cells for expression. After sequencing verification, the corresponding rGmolCSP8 mutant proteins were induced and purified, and the binding affinities to 1-hexanol and its analogs were verified via ligand-binding assays according to the method described above.

[3] = target: GmolCSP8-L80A (Grapholita molesta, UniProt A0A0M4FML8, L95A); test: biochemical; assay type: binding
Sequence of GmolCSP8-L80A (A0A0M4FML8 entry or part of it L95A): as the sequence (A0A0M4FML8 entry or part of it V55A) above, with A40V, L80A counted along it
Procedure: as §1, §2

[4] = target: GmolCSP8-L30A (Grapholita molesta, UniProt A0A0M4FML8, L45A); test: biochemical; assay type: binding
Sequence of GmolCSP8-L30A (A0A0M4FML8 entry or part of it L45A): as the sequence (A0A0M4FML8 entry or part of it V55A) above, with L30A, A40V counted along it
Procedure: as §1, §2

[5] = target: GmolCSP8-T27A (Grapholita molesta, UniProt A0A0M4FML8, T42A); test: biochemical; assay type: binding
Sequence of GmolCSP8-T27A (A0A0M4FML8 entry or part of it T42A): as the sequence (A0A0M4FML8 entry or part of it V55A) above, with T27A, A40V counted along it
Procedure: as §1, §2

[6] = 2 μM rGmolCSP8 and 2 μM 1-NPN, pH 7.4, calculated from IC50, read-out: Ki
[7] = mutant L30A compared with wild-type
[8] = read-out: Ki (μM) L30A; mutant L30A; – = lost ability to bind

Sequence of rGmolCSP8 (A0A0M4FML8 entry or part of it): as the sequence (A0A0M4FML8 entry or part of it V55A) above, with A40V counted along it

Question: What does the source list for `CCCCCCCCC=O` [Nonanal]?
Answer: IC50 ([1]; 2 μM rGmolCSP8 and 2 μM 1-NPN): > 24 µM; Ki [1, 6]: > 24 µM

Question: Which IC50 ([1]; 2 μM rGmolCSP8 and 2 μM 1-NPN) does the source give for `CCCCCCC(=O)OCC` [Ethyl heptanoate] here?
Answer: > 24 µM

Question: What about the Ki [1, 6] of the same compound?
Answer: > 24 µM

Question: Which IC50 ([1]; 2 μM rGmolCSP8 and 2 μM 1-NPN) does the source give for `N#Cc1ccccc1` [Benzonitrile] here?
Answer: > 24 µM

Question: What about the Ki [1, 6] of the same compound?
Answer: > 24 µM

Question: What about the “binding to rGmolCSP8 (in words)” value [1] of the same compound?
Answer: cannot bind

Question: `CCCCCCCCCCCCCC` [Tetradecane] was tested. Which IC50 ([1]; 2 μM rGmolCSP8 and 2 μM 1-NPN) did it give?
Answer: > 24 µM

Question: And the Ki [1, 6]?
Answer: > 24 µM

Question: With `CCCCCO` [1-pentanol] as the compound, how does the Ki [2] read?
Answer: 12.4 ± 1.41 µM

Question: What about the Ki [3] of the same compound?
Answer: 6.66 ± 0.64 µM

Question: And the “binding to mutant L30A (in words)” value [4, 7]?
Answer: lost its ability to bind

Question: What about the Ki [4, 8] of the same compound?
Answer: > 24 µM

Question: And the IC50 [5]?
Answer: > 24 µM

Question: What about the Ki ([5]; read-out: Ki (μM) T27A, mutant T27A, – = did not displace 50% 1-NPN at ligand up to 24 μM) of the same compound?
Answer: > 24 µM

Question: What about the IC50 ([1]; 2 μM rGmolCSP8 and 2 μM 1-NPN) of the same compound?
Answer: 8.79 ± 0.99 µM

Question: And the Ki [1, 6]?
Answer: 8.18 ± 0.93 µM

Question: Which results are given for `C=C/C(C)=C/CCC(=C)C` [α-Ocimene]?
Answer: IC50 ([1]; 2 μM rGmolCSP8 and 2 μM 1-NPN): 18.9 ± 1.29 µM; Ki [1, 6]: 17.6 ± 0.81 µM

Question: With `CCCCCCCCCCCCCCCC` [Hexadecane] as the compound, how does the IC50 ([1]; 2 μM rGmolCSP8 and 2 μM 1-NPN) read?
Answer: > 24 µM

Question: What about the Ki [1, 6] of the same compound?
Answer: > 24 µM

Question: `CC(C)CCO` [3-methyl-1-butanol] was tested. Which IC50 ([1]; 2 μM rGmolCSP8 and 2 μM 1-NPN) did it give?
Answer: 6.6 ± 0.45 µM

Question: What about the Ki [1, 6] of the same compound?
Answer: 6.32 ± 0.52 µM

Question: Which IC50 ([1]; 2 μM rGmolCSP8 and 2 μM 1-NPN) does the source give for `CCCCOC(=O)CCC` [Butyl butyrate] here?
Answer: > 24 µM

Question: What about the Ki [1, 6] of the same compound?
Answer: > 24 µM

Question: `CCCCCCCCCCCCCCC` [Pentadecane] was tested. Which IC50 ([1]; 2 μM rGmolCSP8 and 2 μM 1-NPN) did it give?
Answer: > 24 µM

Question: What about the Ki [1, 6] of the same compound?
Answer: > 24 µM

Question: Which results are given for `CC(=O)OCCC(C)C` [Isoamyl acetate]?
Answer: IC50 ([1]; 2 μM rGmolCSP8 and 2 μM 1-NPN): > 24 µM; Ki [1, 6]: > 24 µM

Question: What does the source list for `CCCCCCCC=O` [Octanal]?
Answer: IC50 ([1]; 2 μM rGmolCSP8 and 2 μM 1-NPN): > 24 µM; Ki [1, 6]: > 24 µM

Question: Which results are given for `CCCCCC=O` [Hexanal]?
Answer: IC50 ([1]; 2 μM rGmolCSP8 and 2 μM 1-NPN): > 24 µM; Ki [1, 6]: > 24 µM; binding to rGmolCSP8 (in words) [1]: cannot bind

Question: Which results are given for `CCCCCCC=O` [Heptanal]?
Answer: IC50 ([1]; 2 μM rGmolCSP8 and 2 μM 1-NPN): > 24 µM; Ki [1, 6]: > 24 µM; binding to rGmolCSP8 (in words) [1]: cannot bind

Question: What does the source list for `CCCC(=O)OCC` [Ethyl butyrate]?
Answer: IC50 ([1]; 2 μM rGmolCSP8 and 2 μM 1-NPN): > 24 µM; Ki [1, 6]: > 24 µM

Question: With `CCCCCCCCCCCCCCCCCC` [Octadecane] as the compound, how does the IC50 ([1]; 2 μM rGmolCSP8 and 2 μM 1-NPN) read?
Answer: > 24 µM

Question: What about the Ki [1, 6] of the same compound?
Answer: > 24 µM

Question: `CCC/C=C\CCCCCCCO` [(Z)-8-dodecenyl alcohol] was tested. Which IC50 ([1]; 2 μM rGmolCSP8 and 2 μM 1-NPN) did it give?
Answer: > 24 µM

Question: And the Ki [1, 6]?
Answer: > 24 µM

Question: For `CCCCCCCO` [1-heptanol], which Ki [2] is on record?
Answer: 9.68 ± 0.75 µM

Question: And the Ki [3]?
Answer: 6.02 ± 0.66 µM

Question: What about the “binding to mutant L30A (in words)” value [4, 7] of the same compound?
Answer: lost its ability to bind

Question: And the Ki [4, 8]?
Answer: > 24 µM

Question: What about the Ki [5] of the same compound?
Answer: 9.01 ± 0.9 µM

Question: What about the “fold decrease in binding vs wild-type” value ([5]; mutant T27A compared with wild-type rGmolCSP8) of the same compound?
Answer: 1.5- to 2.0 fold

Question: What about the IC50 ([1]; 2 μM rGmolCSP8 and 2 μM 1-NPN) of the same compound?
Answer: 6.79 ± 0.56 µM

Question: And the Ki [1, 6]?
Answer: 6.2 ± 0.42 µM

Question: Which Ki ([2]; mutant V40A, read-out: Ki (μM) V40A) does the source give for `CCCCO` [1-butanol] here?
Answer: 8.07 ± 0.61 µM

Question: And the Ki ([3]; mutant L80A, read-out: Ki (μM) L80A)?
Answer: 6.75 ± 0.57 µM

Question: And the Ki ([4]; mutant L30A; – = lost ability to bind; read-out: Ki (μM) L30A)?
Answer: 17.1 ± 1.05 µM

Question: What about the IC50 ([5]; mutant T27A, ligands up to 24 μM, read-out: ligand concentration displacing 50% 1-NPN from CSP8-T27A/1-NPN complex) of the same compound?
Answer: > 24 µM

Question: What about the Ki ([5]; mutant T27A, – = did not displace 50% 1-NPN at ligand up to 24 μM, read-out: Ki (μM) T27A) of the same compound?
Answer: > 24 µM

Question: What about the IC50 ([1]; 2 μM rGmolCSP8 and 2 μM 1-NPN) of the same compound?
Answer: 7.32 ± 0.56 µM

Question: What about the Ki [1, 6] of the same compound?
Answer: 6.65 ± 0.52 µM

Question: What about the Ki ([1]; Table 3, wild-type rGmolCSP8, read-out: Ki (μM) Wild-Type) of the same compound?
Answer: 6.65 ± 0.52 µM

— publication PMC6516043, “Functional Analysis of the Chemosensory Protein GmolCSP8 From the Oriental Fruit Moth, Grapholita molesta (Busck) (Lepidoptera: Tortricidae)” (Frontiers in Physiology, 2019)
